In patent US20250020658A1, “METHODS FOR SYNTHESIZING AND IDENTIFYING SYNTHETIC PROTEINS INCLUDING TARGETED THERAPEUTICS FOR NEURODEGENERATIVE DISORDERS BASED ON BIO-MIMICRY APPROACHES” (University of Denver, priority 2023, published 2025):
“Also recorded” adds a separate entry of the source. Like-named read-outs stand apart in the source and are kept apart here.

Tests used:
[1] = target: α-Synuclein (αS) aggregation (Homo sapiens, UniProt P37840); assay: Thioflavin T (ThT) dye-based aggregation assay against aggregation of αS; type: biochemical; details: lower ThT intensity = higher antagonist activity
Source text: The resulting dimers are again evaluated with a ThT assay (step (g)), and the best performing dimer is selected in a step (h). The process is repeated to screen for the best performing trimer (step (i)), and so on.
In particular, FIG. 21 is a graph comparing the relative ThT intensities of various molecules synthesized using the 2D FAST process, in accordance with embodiments. The lower the ThT intensity, the higher the antagonist activity of ligands against the target protein (synuclein aggregation in this example).

C. elegans PD models = assay: C. elegans Parkinson's disease models; type: in vivo; details: for rescue of PD phenotypes: multiple C. elegans PD models: degeneration of dopaminergic neurons, increase in reactive oxygen species, reduced motility
Source text: Using OPs as the basis, the 2D FAST approach was used to identify potent antagonists of α-Synuclein (αS) aggregation, a process central to Parkinson's disease (PD) as discussed above. […] (See, for example, “A 2D Fragment-Assisted Protein Mimetic Approach to Rescue α-Synuclein Aggregation Mediated Early and Post-Disease Parkinson's Phenotypes,” bioRxiv preprint posted 2022 Jul. 13, doi: https://doi.org/10.1101/2022.07.11.499659)

[2] = Parallel Artificial Membrane Permeability Assay (PAMPA); type: in vitro ADME; details: NS163 compared with NS132
Source text: FIG. 22 is a graph comparing the cell permeability of various ligands identified and synthesized using the 2D FAST approach and assessed using the Parallel Artificial Membrane Permeability Assay (PAMPA) technique. […] FIG. 25 is a graph comparing the relative ThT intensities of various molecules synthesized using the 2D FAST process in the presence of αS, in accordance with embodiments.

αS oligomers = αS oligomers (Homo sapiens, UniProt P37840); details: pathological high molecular weight αS oligomers vs αS monomers (native conformation), cited from earlier work
[3] = mouse model; cited from earlier work

## Cc1ccc(NC(=O)c2ccc([N+](=O)[O-])c(NCC3CCCCC3)n2)c(OCC(=O)O)n1 [NS55]
[1]
  antagonist activity against αS aggregation: potent inhibitor of α-Synuclein aggregation

## Cc1ccc(NC(=O)c2ccc(NC(=O)c3ccc([N+](=O)[O-])c(NCCc4c[nH]c5ccccc45)n3)c(NCC3CCCCC3)n2)c(OCC(=O)O)n1 [NS132]
C. elegans PD models
  rescue of PD phenotypes: very effective ligands in rescuing PD phenotypes
[1]
  antagonist activity against αS aggregation: most potent tripyridyl; also recorded: antagonist of the multiple facets of αS aggregation

## Cc1ccc(NC(=O)c2ccc(NC(=O)c3ccc([N+](=O)[O-])c(NCCc4c[nH]c5ccccc45)n3)c(NCC3CCCCC3)n2)c(OCC(=O)NO)n1 [NS163]
C. elegans PD models; NS163 as enhanced version of NS132
  activity within a C. elegans Parkinson's disease model: increased cell permeability and activity
C. elegans PD models
  rescue of PD phenotypes: very effective ligands in rescuing PD phenotypes
[2]
  cell permeability: increased cell permeability; also recorded: better cell permeability
[1]
  antagonist activity against αS aggregation: potent antagonist of α-Synuclein aggregation; also recorded: without sacrificing activity

## COC(=O)c1cc(OCC(=O)O)c2cccc(NC(=O)c3cc(OC(C)C)c4cccc(NC(=O)c5cc(OCC(=O)O)c6cccc(NC(=O)c7cc(OC(C)C)c8cccc([N+](=O)[O-])c8n7)c6n5)c4n3)c2n1 [SK-129]
αS oligomers
  affinity to αS oligomers relative to αS monomers: 10 fold
αS oligomers; listed as SK-α129
  affinity to αS oligomers relative to αS monomers: ten-fold higher affinity
[3]
  crossing of the BBB: efficiently crosses the BBB
  toxicity: without demonstrating any toxicity
